The source of these data is article PMC7037671, “Naphthoquinone Derivatives with Anti-Inflammatory Activity from Mangrove-Derived Endophytic Fungus Talaromyces sp. SK-S009” (Molecules, 2020).

Data set [1] is described as follows: Cytotoxicity / cell viability by MTT assay. The class given is cell-based, murine. To be noted: mouse, RAW 264.7 cells, MTT assay. As to the method:
(§1) The nitrite/nitrate oxidized from NO was detected by the Griess reagent as previously reported with slight modifications. The murine macrophage cell line (RAW 264.7 cells) were seeded in 96-well plates at a density of 1 × 10^5 cells/well and preincubated for 12 h. The tested compounds were dissolved in dimethylsulfoxide (DMSO) and diluted with Dulbecco’s Modified Eagle Medium (DMEM) medium to a final concentration (final DMSO concentration <0.1% in all assays). Indomethacin was used as the positive control. Cells were stimulated with 1µg/mL of lipopolysaccharide (LPS, Sigma, St. Louis, MO, USA) with or without tested compounds for 24 h. Then culture supernatant was mixed with an equal volume of Griess reagent I and II (Beyotime, Shanghai, China), and measured at 540 nm using a microplate reader (Bio-Rad Laboratories, Inc., Kyoto, Japan). Cell viability was evaluated using MTT assay.

In the next data set the test system is RAW 264.7 cells. The data set is described as follows: Cytotoxicity / cell viability by MTT assay. Type of data set: cell-based, murine. The note with it: CC50 (MTT) / IC50 (NO production). How it is done:
as §1
For orientation: Formazan colour is commonly taken as a measure of viable cells.

Data set [2] relates to LPS-induced NO production in the murine macrophage cell line (RAW 264.7 cells). The data set is described as follows: Inhibition of LPS-induced NO production (Griess reagent). The note with it: Mus musculus, read-out: IC50 against LPS-induced NO production. The class given is cell-based. As to the method:
as §1
A general note: Nitrite, measured by Griess reagent, commonly stands in for NO production.

Data set [3] relates to inducible nitric oxide synthase (iNOS) mRNA. The data set is described as follows: Real-time PCR, iNOS mRNA expression in LPS-stimulated RAW 264.7 cells. Type of data set: cell-based, murine. The note with it: LPS (1 μg/mL) 12 h, 1 h pretreatment, 1, 2, 4 μM, RT-PCR. As to the method:
(§2) Figure 4 RAW 264.7 murine macrophage cells were pre-incubated for 12h, and then cells were pretreated with compound 9 at the indicated concentration for 1 h and incubated with LPS (1 μg/mL) for 12h (real-time PCR). The effect of compound 9 on the mRNA expressions of inducible nitric oxide synthase (iNOS) (A), cyclooxygenase-2 (COX-2)(B), tumor necrosis factor (TNF)-α (C), interleukin (IL)-6 (D), and IL-1β (E) were detected by real-time PCR. The data represent the mean values ± SD of three experiments, * p < 0.05, ** p < 0.01 compared to LPS-treated group.
(§3) RAW264.7 cells were placed in a 6-well plate at a density of 1 × 10^6 cells/well and incubated for 12 h. Cultured cells were pretreated with compound 9 (1, 2, 4 μM/L) for 1 h and incubated with LPS (1 μg/mL) for 12 h. RNA was extracted with Trizol Reagent (Takara Bio Inc., Otsu, Japan) according to the manufacturer’s instructions, and cDNA was reverse transcribed from total RNA using a Superscript III system (Takara Bio Inc., Otsu, Japan). PCR amplification was carried out using PikoReal™ (Thermo Fisher Scientific, MA, US) and specific primers. The optimal conditions for PCR amplification of the cDNA were established by following the manufacturer’s instructions. Relative gene expression was calculated using the comparative Ct method (2^−ΔΔCt) with glyceraldehyde-3-phosphate dehydrogenase (GAPDH) as an internal control. […]
For orientation: Real-time PCR tracks product formation cycle by cycle.

Data set [4] deals with cyclooxygenase-2 (COX-2) mRNA. As to the kind of experiment: Real-time PCR, COX-2 mRNA expression in LPS-stimulated RAW 264.7 cells. Type of data set: cell-based, murine. The note with it: LPS (1 μg/mL) 12 h, 1 h pretreatment, 1, 2, 4 μM, RT-PCR. As to the method: as §2, §3
Another data set relates to interleukin (IL)-1β mRNA. As to the kind of experiment: Real-time PCR, IL-1β mRNA expression in LPS-stimulated RAW 264.7 cells. The class given is cell-based, murine. How it is done: as §2, §3
The next data set has as its system IL-6 mRNA. As to the kind of experiment: Real-time PCR, IL-6 mRNA expression in LPS-stimulated RAW 264.7 cells. Type of data set: cell-based, murine. How it is done: as §2, §3
For data set [5], the system named is tumor necrosis factor (TNF)-α mRNA. As to the kind of experiment: Real-time PCR, TNF-α mRNA expression in LPS-stimulated RAW 264.7 cells. The class given is cell-based, murine. As to the method: as §2, §3
Where [6] appears, read: RAW 264.7 macrophage cells, means ± SD, n = 3, read-out: CC50.
The mark [7] stands for this setting: RAW264.7, RAW 264.7 cells, LPS 1 µg/mL, 24 h, means ± SD, n = 3.
Setting [8] is: RAW 264.7 macrophage cells, tested at 50 μM, read-out: CC50 (cytotoxicity, class symbol).
The mark [9] stands for this setting: 2.0 μM, compared with the control groups.
The mark [10] stands for this setting: LPS (1 μg/mL) 12 h, 1 h pretreatment, 1, 2, 4 μM, RT-PCR.

Read-outs that look alike come from different tables or passages of the source. Some results are limits rather than exact numbers.

In the case of `COc1cc(O)c2c(c1)C(=O)C(C[C@H](C)O)=C(C)C2=O` [Compound 1, Talanaphthoquinone A], in [1] (setting [6]), the CC50 (usually the concentration giving 50% cytotoxicity) at 24 h turned out to be 30.7 ± 0.5 µM. Also, the “SI (selectivity index, CC50/IC50)” value in the data set on RAW 264.7 cells is 7.9. Moreover, in data set [2] (setting [7]), the IC50 (usually the concentration needed to halve the response being measured) was 3.9 ± 0.5 µM.
As for `COC1=CC(=O)c2c(O)c(C)c3c(c2C1=O)OC(CO)C3` (stereo not shown) [Compound 2, Talanaphthoquinone B], the melting point – broadly, the temperature, or range, at which the solid turns liquid – was in the range of 157.7 to 159.3 °C. In data set [1] (setting [8]), the CC50 at 24 h was > 50 µM. Moreover, the half-inhibitory concentration (IC50) in [2] (setting [7]) is 49.7 ± 1.5 µM.
On to `COC1=CC(=O)c2c(O)c(C)c3c(c2C1=O)OC(C)C3` (stereo not shown) [Compound 3, anhydrojavanicin], for which the CC50 at 24 h in [1] (tested at 50 μM, read-out: CC50 (cytotoxicity, class symbol)) was > 50 µM. Moreover, the IC50 in data set [2] (setting [7]) amounted to 16 ± 0.2 µM.
With `COC1=CC(=O)c2c(O)c(CO)c3c(c2C1=O)OC(C)C3` (stereo not shown) [Compound 4, 2,3-dihydro-5-hydroxy-4-hydroxymethyl-8-methoxy-2-methylnaphtho[1,2-b]furan-6,9-dione], the CC50 at 24 h in data set [1] (setting [8]) was > 50 µM. Further, the IC50 in data set [2] (setting [7]) came to 22.6 ± 0.5 µM.
Consider `COC1=CC(=O)c2c(O)c(C)c3cc(C)oc3c2C1=O` [Compound 5, anhydrojavanicin], for which, in [1] (setting [8]), the CC50 at 24 h was > 50 µM. In [2] (setting [7]), the IC50 was 11.2 ± 0.3 µM.
Consider `COC1=CC(=O)c2c(O)c3c(c(O)c2C1=O)C=C(C)OC3` [Compound 6, anhydrofusarubin], for which, in data set [1] (setting [8]), the CC50 at 24 h was > 50 µM. In addition, the IC50 in data set [2] (RAW264.7, 24 h) is 5.2 ± 0.1 µM.
Consider `CCc1c(OC)cc2c(c1O)C(=O)C=C(OC)C2=O` [Compound 8, 6-ethyl-2,7-dimethoxyjuglone], for which, in [1] (setting [8]), the CC50 at 24 h is > 50 µM. Also, the IC50 in data set [2] (setting [7]) turned out to be 7.7 ± 0.3 µM.
Take `COC1=CC(=O)c2c(cc(OC)c(C(C)OC(C)=O)c2O)C1=O` (stereo not shown) [Compound 9, 6-[1-(acetyloxy)ethyl]-5-hydroxy-2,7-dimethoxy-1,4-naphthalenedione]: the “effect on iNOS mRNA expression” value in [3] is recorded as “apparently reduced”. Moreover, the CC50 at 24 h in data set [1] (setting [6]) was determined as 50.3 ± 1.5 µM. Further, the “SI (selectivity index, CC50/IC50)” value in the data set on RAW 264.7 cells came to 29.6. Further, the “effect on COX-2 mRNA expression” value in data set [4] is “apparently reduced”. In addition, the “inhibition of IL-1β mRNA expression” value in the data set with interleukin (IL)-1β mRNA (setting [9]) is “about 80%”. Besides, the “effect on IL-1β mRNA expression” value in the data set with interleukin (IL)-1β mRNA (setting [10]) is “apparently reduced”. For the same molecule, the “inhibition of IL-6 mRNA expression” value with IL-6 mRNA (setting [9]) was “about 80%”. Besides, the “effect on IL-6 mRNA expression” value in the data set on IL-6 mRNA (setting [10]) is given as “apparently reduced”. Moreover, the “inhibition of TNF-α mRNA expression” value in data set [5] (setting [9]) was “about 80%”. In addition, in data set [5] (setting [10]), the “effect on TNF-α mRNA expression” value is listed as “apparently reduced”. Also, the IC50 in data set [2] (setting [7]) came to 1.7 ± 0.2 µM.
On to `COC1=CC(=O)c2c(cc(OC)c(C(C)O)c2O)C1=O` (stereo not shown) [Compound 10, 5-hydroxy-6-(1-hydroxyethyl)-2,7-dimethoxy-1,4-naphthalenedione], for which, in data set [1] (setting [6]), the CC50 at 24 h was 15.8 ± 0.4 µM. Besides, in the data set on RAW 264.7 cells, the “SI (selectivity index, CC50/IC50)” value amounted to 2.1. For the same molecule, the IC50 in data set [2] (setting [7]) stood at 7.5 ± 0.2 µM.
In the case of `COC1=CC(=O)c2c(O)c(C)c(CC(C)O)c(O)c2C1=O` (stereo not shown) [Compound 11, solaniol], the CC50 at 24 h in data set [1] (means ± SD, n = 3, read-out: CC50) is 59.2 ± 1.5 µM. In addition, the “SI (selectivity index, CC50/IC50)” value in the data set with RAW 264.7 cells is recorded as 3.8. In [2] (setting [7]), the half-inhibitory concentration (IC50) was 15.5 ± 0.6 µM.
Turning to `COC1=CC(=O)c2c(O)c(C)c(CC(C)=O)c(O)c2C1=O` [Compound 12, javanicin], the CC50 at 24 h in data set [1] (setting [6]) was 48.4 ± 1.3 µM. Besides, the “SI (selectivity index, CC50/IC50)” value in the data set with RAW 264.7 cells is on record as 8.6. Moreover, the IC50 in data set [2] (setting [7]) was 5.6 ± 0.3 µM.
With `COc1ccc2c(c1)c(CC(=O)O)c(C)n2C(=O)c1ccc(Cl)cc1` [Indomethacin, reference compound], the IC50 in data set [2] (setting [7]) is 26.3 ± 0.6 µM.
